Experimental findings from patent publication US9102648B1, “Bioavailable diacylhydrazine ligands for modulating the expression of exogenous genes via an ecdysone receptor complex” (Intrexon Corporation, priority 2003, dated 2015) are described below.

Usually EC50 stands for the concentration needed to bring the measured effect to its halfway point.

Data set [1] deals with T1, Bombyx mori EcR (VP16 fusion, CVBE switch construct) (Bombyx mori, UniProt P49881).
T1 sequence (P49881 86-606): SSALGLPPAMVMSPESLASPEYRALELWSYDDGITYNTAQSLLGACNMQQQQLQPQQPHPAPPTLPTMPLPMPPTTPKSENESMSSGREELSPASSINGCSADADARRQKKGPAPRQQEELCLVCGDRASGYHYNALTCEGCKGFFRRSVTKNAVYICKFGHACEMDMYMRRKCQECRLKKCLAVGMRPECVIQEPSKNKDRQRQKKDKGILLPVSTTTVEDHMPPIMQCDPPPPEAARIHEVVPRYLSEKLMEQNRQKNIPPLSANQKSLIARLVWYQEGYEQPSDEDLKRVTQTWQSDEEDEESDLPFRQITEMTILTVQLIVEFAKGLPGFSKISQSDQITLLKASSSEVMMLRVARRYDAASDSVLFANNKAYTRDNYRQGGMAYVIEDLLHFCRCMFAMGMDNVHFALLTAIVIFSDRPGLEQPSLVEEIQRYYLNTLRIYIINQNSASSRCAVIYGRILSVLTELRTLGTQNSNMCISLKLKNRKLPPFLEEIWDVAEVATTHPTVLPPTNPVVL
T1 sequence (P19793 1-462 partner): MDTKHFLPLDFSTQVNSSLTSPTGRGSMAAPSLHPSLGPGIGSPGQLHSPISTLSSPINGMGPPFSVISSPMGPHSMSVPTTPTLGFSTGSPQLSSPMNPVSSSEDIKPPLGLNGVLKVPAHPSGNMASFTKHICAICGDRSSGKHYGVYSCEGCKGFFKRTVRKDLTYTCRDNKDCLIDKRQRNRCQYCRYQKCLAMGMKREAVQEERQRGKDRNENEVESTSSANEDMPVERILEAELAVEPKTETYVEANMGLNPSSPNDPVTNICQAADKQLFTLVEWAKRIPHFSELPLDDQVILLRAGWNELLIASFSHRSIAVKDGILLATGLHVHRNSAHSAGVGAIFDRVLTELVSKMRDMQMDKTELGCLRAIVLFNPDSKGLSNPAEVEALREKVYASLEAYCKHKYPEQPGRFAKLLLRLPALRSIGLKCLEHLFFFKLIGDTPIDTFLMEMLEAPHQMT
Kind of data set: Z3 Assay (HEK-293 cells with CVBE and 6XEcRE LacZ, β-galactosidase reporter). The note with it: for Fold Induction, Z3 Assay, 3.3 uM: 3.3 uM ligand; for Fold Induction, Z3 Assay, 3.3 uM / Fold Induction, Z3 Assay, 33 uM: ligand treated / DMSO treated cells; for Fold Induction, Z3 Assay, 3.3 uM / Fold Induction, Z3 Assay, 33 uM / EC50: average of two wells; for Fold Induction, Z3 Assay, 33 uM: 33 uM ligand; for Z3 assay Rel Max FI: maximum fold induction at any concentration relative to that of GS-E ligand; for Z3 assay Rel Max FI / EC50: HEK-293 Z3 cells; for EC50: read-out: Z3 assay EC50, β-galactosidase reporter.

Data set [2] addresses GAL4 DBD-CfEcR(DEF)/VP16AD-MmRXRE (Choristoneura fumiferana, UniProt O77240). As to the kind of experiment: 13B3 Assay (CHO stable cell line, luciferase reporter). The note with it: for Fold Induction, 13B3 Assay, 3.3 uM: 3.3 uM ligand; for Fold Induction, 13B3 Assay, 3.3 uM / Fold Induction, 13B3 Assay, 33 uM: RLU ligand treated / RLU DMSO treated cells; for Fold Induction, 13B3 Assay, 3.3 uM / Fold Induction, 13B3 Assay, 33 uM / EC50: average of two wells; for Fold Induction, 13B3 Assay, 33 uM: 33 uM ligand; for 13B3 assay Rel Max FI: maximum fold induction at any concentration relative to that of GS-E ligand, CHO 13B3 cells; for EC50: read-out: 13B3 EC50, CHO 13B3 stable cell line, luciferase reporter, 48 h. An outline of the steps: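 CHO 13B3 clone stably expressing GAL4 DBD–CfEcR(DEF) and VP16AD–MmRXR(DE) with GAL4 RE–luciferase reporter; cells plated 24 h at 37 °C, then treated with ligands (DMSO stocks diluted 300-fold), 8 concentrations 33–0.01 μM.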
(A reporter such as luciferase makes a cellular process visible.)

SMILES strings stand for the structures.

Consider `Cc1cc(C)cc(C(=O)N(NC(=O)c2ccc3c(c2)OC(C)O3)C(C)(C)C)c1` (stereo not shown) [RG-101511], for which, in data set [1], the “Fold Induction, Z3 Assay, 3.3 uM” value came out at 947; the “Fold Induction, Z3 Assay, 33 uM” value came to 487; the “Z3 assay Rel Max FI” value is 1.122; the EC50 is 0.468 µM. Moreover, in data set [2], the “Fold Induction, 13B3 Assay, 3.3 uM” value is listed as 1912; the “Fold Induction, 13B3 Assay, 33 uM” value is recorded as 744; the “13B3 assay Rel Max FI” value is given as 0.811; the EC50 amounted to 0.794 µM.
`COc1cccc(C(=O)NN(C(=O)c2cccnc2Cl)C(C)(C)C)c1C` [RG-100127]: in data set [1], the “Fold Induction, Z3 Assay, 33 uM” value came out at 245 and the EC50 amounted to 4.68 µM. Moreover, the “Fold Induction, 13B3 Assay, 33 uM” value in data set [2] was 365.
For `COc1ccc(C(=O)NN(C(=O)c2ccc(F)cc2Cl)C(C)(C)C)cc1` [RG-101057], in data set [1], the “Fold Induction, Z3 Assay, 3.3 uM” value came out at 632; the “Fold Induction, Z3 Assay, 33 uM” value came to 930; the “Z3 assay Rel Max FI” value was 0.697; the EC50 is 4.47 µM. In data set [2], the “Fold Induction, 13B3 Assay, 3.3 uM” value stood at 33; the “Fold Induction, 13B3 Assay, 33 uM” value was determined as 842; the “13B3 assay Rel Max FI” value came to 0.569; the EC50 turned out to be 4.97 µM.
Turning to `Cc1cc(C)cc(C(=O)N(NC(=O)c2ccc3c(c2)COCO3)C(C)(C)C)c1` [RG-101016], in data set [1], the “Fold Induction, Z3 Assay, 33 uM” value was found to be 394 and the EC50 amounted to 2 µM. Besides, the “Fold Induction, 13B3 Assay, 33 uM” value in data set [2] was determined as 4693.
The corresponding values for `COc1cc(C(=O)NN(C(=O)c2cc(C)cc(C)c2)C(C)(C)C)ccc1C` [RG-101585] are 330, 4.9 µM and 1015.
For the compound `COc1ccccc1C(=O)N(NC(=O)c1ccc2c(c1C)OCOC2)C(C)(C)C` [RG-100216], in data set [1], the “Fold Induction, Z3 Assay, 33 uM” value came to 398 and the half-maximal effective concentration (EC50) was found to be 1.78 µM. Besides, the “Fold Induction, 13B3 Assay, 33 uM” value in data set [2] was 8037.
